# Patent US20240124456A1, “AZA-ERGOLINE DERIVATIVE AND PREPARATION METHOD THEREFOR AND APPLICATION THEREOF” (SHANGHAITECH UNIVERSITY, priority 2021, published 2024)
# pEC50, pKi: −log10 of the molar value.
# How the values were obtained:
# dopamine D2 receptors [1] = biological target: T1, dopamine D2 receptors (Homo sapiens (Human), UniProt P14416); assay: Radioligand competition binding, affinity for dopamine D2 receptors ([3H]-Methylspiperone)
# Experimental: A 10 cm diameter dish was used for transfection with 10 ng of the dopamine D2 receptors and 40 μL of PEI. After 48 hours, the 10 cm dish was taken out from the cell culture room and the cultured cells had expressed the dopamine D2 receptors. A vacuum pump was used to suck off the culture medium, 3 mL of lysis buffer (50 mM Tris hydrochloric acid buffer, pH 7.4) was added to each well, and the cells were placed in a 4° C. freezer for 10 minutes. After the cells were detached, the cells were transferred to a 15 mL centrifuge tube and centrifuged at 1500 rpm for 5 minutes at 4° C., and the supernatant was discarded. The cell pellet was transferred to a tissue homogenizer, and 3 mL of lysis buffer was added and fully ground until the cells were broken. Then, cell suspension was equally divided into several EP tubes, centrifuged at 4° C. and 12000 rpm for 5 min, and the supernatant was discarded. The precipitate was the cell membrane component containing the dopamine D2 receptors and stored at −80° C.
# First, a standard binding buffer (50 mM HEPES, 50 mM NaCl, 5 mM MgCl2, 0.5 mM EDTA, pH 7.4) was added to the cell membrane component containing the dopamine D2 receptors, and the cell membrane was disrupted and resuspended with an electric tissue homogenizer. 30 μL of membrane protein suspension was added to each well of a 96-well plate. Then, 30 μL of different drugs were added to the 96-well plate from left to right to ensure that the final drug concentrations were 10^−5 M, 10^−6 M, 10^−7 M, 10^−8 M, 10^−9 M and 0 M, with two replicates per treatment. Next, 30 μL [^3H]-N-Methylspiperone was added to each well of the 96-well plate, and the plate was incubated for 2 hours at room temperature in the dark. The unbound isotopes were removed by Whatman GF/C filter membrane and vacuum pump, and the isotopes bound to the receptors were detected by MicroBeta isotope liquid scintillation counter.
# The affinity of the compounds of the present invention for the dopamine D2 receptors was determined by the method of radioligand competition experiment. In the first step, a cell membrane component containing specific dopamine D2 receptors was prepared. A10 cm dish was used for transfection with 10 ng of the dopamine D2 receptors and 40 μL of PEI. After 48 hours, the 10 cm dish was taken out from the cell culture room and the cultured cells had expressed the dopamine D2 receptors. A vacuum pump was used to suck off the culture medium, 3 mL of lysis buffer was added to each well, and the cells were placed in a 4° C. freezer for 10 minutes. After the cells were detached, the cells were transferred to a 15 mL centrifuge tube and centrifuged at 1500 rpm for 5 minutes at 4° C., and the supernatant was discarded. The cell pellet was transferred to a tissue homogenizer, and 3 mL of lysis buffer was added and fully ground until the cells were broken. Then, cell suspension was equally divided into several EP tubes, centrifuged at 4° C. and 12000 rpm for 5 min, and the supernatant was discarded. The precipitate was the cell membrane component containing the dopamine D2 receptors. […] First, a standard binding buffer was added to the cell membrane component containing the dopamine D2 receptors, and the cell membrane was disrupted and resuspended with an electric tissue homogenizer. 30 μL of membrane protein suspension was added to each well of a 96-well plate. Then, 30 μL of different drugs were added to the 96-well plate from left to right to ensure that the final drug concentrations were 10^−5 M, 10^−6 M, 10^−7 M, 10^−8 M, 10^−9 M and 0 M, with two replicates per treatment. Next, 30 μL [^3H]-Methylspiperone was added to each well of the 96-well plate. The plate was incubated for 2 hours at room temperature in the dark. Detection. The machine reading value reflected the amount of [^3H]-Methylspiperone bound on the membrane, and after further data processing, the affinity Ki value of different compounds for dopamine D2 receptors was obtained.
# 5-HT2A receptor [2] = biological target: T2, 5-HT2A receptor (Homo sapiens (Human), UniProt P28223); assay: Radioligand competition binding, affinity for 5-HT2A receptor ([3H]-ketanserin)
# Experimental: The affinity of the compounds of the present invention for the 5-HT2A receptors was determined by the method of radioligand competition experiment. In the first step, a cell membrane component containing specific 5-HT2A receptor was prepared. A 10 cm dish was used for transfection with 10 ng of the 5-HT2A receptor and 40 μL of PEI. […] A vacuum pump was used to suck off the culture medium, 3 mL of lysis buffer was added to each well, and the cells were placed in a 4° C. freezer for 10 minutes. After the cells were detached, the cells were transferred to a 15 mL centrifuge tube and centrifuged at 1500 rpm for 5 minutes at 4° C., and the supernatant was discarded. The cell pellet was transferred to a tissue homogenizer, and 3 mL of lysis buffer was added and fully ground until the cells were broken. Then, cell suspension was equally divided into several EP tubes, centrifuged at 4° C. and 12000 rpm for 5 min, and the supernatant was discarded. The precipitate was the cell membrane component containing the 5-HT2A receptor. […] First, a standard binding buffer was added to the cell membrane component containing the 5-HT2A receptor, and the cell membrane was disrupted and resuspended with an electric tissue homogenizer. 30 μL of membrane protein suspension was added to each well of a 96-well plate. Then, 30 μL of different drugs were added to the 96-well plate from left to right to ensure that the final drug concentrations were 10^−5 M, 10^−6 M, 10^−7 M, 10^−8 M, 10^−9 M and 0 M, with two replicates per treatment. Next, 30 μL [^3H]-ketanserin was added to each well of the 96-well plate. The plate was incubated for 2 hours at room temperature in the dark. Detection. The machine reading value reflected the amount of [^3H]-ketanserin bound on the membrane, and after further data processing, the affinity Ki value of different compounds for 5-HT2A receptor was obtained.
# dopamine D2 receptors [3] = biological target: T1, dopamine D2 receptors; assay: G protein Gαi1-γ9 dissociation BRET, dopamine D2 receptor functional activity; format: cell-based
# Experimental: To examine downstream G protein signaling mediated by dopamine D2 receptors, 6 cm dish was used for transfection with 1μg of dopamine D2 receptors, 1μg of Gαi1 fused to seaweed luciferase (Gαi1-Rluc), 1 μg of Gβ3, 1 μg of Gγ9 fused to green fluorescent protein (Gγ9-GFP) and 16 μL of transfection reagent PEI. […] On the third day, the drugs were added for test.
# (§1) To examine downstream G-protein signaling pathway mediated by dopamine D2 receptors, on the first day, 6 cm dish was used for transfection with 1μg of dopamine D2 receptors, 1μg of Gαi1 containing C-terminal seaweed luciferase (GGαi1-Rluc), 1 μg of […], 1 μg of Gγ9 containing C-terminal green fluorescent protein (Gγ9-GFP) and 16 μL of PEI. At the same time, in order to examine the downstream f3-arrestin2 signaling pathway mediated by dopamine D2 receptors, on the first day, 6 cm dish was used for transfection with 500 μg of dopamine D2 receptors containing C-terminal seaweed luciferase (D2-Rluc), 500 μg of G protein-coupled receptor kinase 2 (GRK2), 2500 μg of […] containing N-terminal green fluorescent protein (GFP2-ARRB2) and 14 μL of PEI. The next day, the overgrown cells were digested and plated a 96-well plate at the amount of cells contained in a 6 cm culture dish with overgrown cells, and 100 μL of culture medium was added to each well. On the third day, the drugs were added for test. The 96-well plate was taken out from the cell culture room to remove the culture medium, 40 μL of the substrate coelenterazine 400a (final concentration of 5 μM) was added to each well, and then 20 μL of different drugs were added in turn from left to right to ensure that the final concentration of the drugs decreased gradually from bottom to top, and each treatment was repeated twice. Finally, the prepared samples were loaded on machine for test. The machine reading value reflected the intracellular β-arrestin2 on the membrane and the dissociation of G protein trimer. The former indicated the degree of activation of the β-arrestin2 signaling pathway downstream of the dopamine D2 receptors, and the latter indicated the degree of activation of the G protein signaling pathway downstream of the dopamine D2 receptors.
# dopamine D2 receptors [4] = biological target: T1, dopamine D2 receptors; assay: β-arrestin2 recruitment BRET, dopamine D2 receptor functional activity; format: cell-based
# Experimental: To examine the downstream f3-arrestin2 signaling pathway mediated by dopamine D2 receptors, 6 cm dish was used for transfection with 500 […] of dopamine D2 receptors fused to seaweed luciferase (D2-Rluc), 500 μg of G protein-coupled receptor kinase 2 (GRK2), 2500 μg of β-arrestin2 fused to green fluorescent protein (GFP2-ARRB2) and 14 μL of transfection reagent PEI. The next day, the overgrown cells were digested and plated a 96-well plate at the amount of cells contained in a 6 cm culture dish with overgrown cells, and 100 μL of culture medium was added to each well. On the third day, the drugs were added for test.
# as §1
# C57B6 male mice = assay: Freezing behavior test; format: in vivo; settings: 10 mg/kg
# Experimental: Experimental method: The experimental animals were C57B6 male mice, n=8 in each group. Mice were first injected with different compounds, and after a certain period of time (30 min or 60 min), the mice were in an upright and unnatural state by placing their forelimbs on a high glass hanging rod (about 5 cm from the ground). Then the time for the mice to maintain this state was measured, and the length of time was used to determine the freezing effect of the drug on the mice.
# 5-HT2A receptor [5] = biological target: T2, 5-HT2A receptor; settings: Blair, Drugs, 2020; cited from earlier work
# T1 sequence (P14416 whole entry): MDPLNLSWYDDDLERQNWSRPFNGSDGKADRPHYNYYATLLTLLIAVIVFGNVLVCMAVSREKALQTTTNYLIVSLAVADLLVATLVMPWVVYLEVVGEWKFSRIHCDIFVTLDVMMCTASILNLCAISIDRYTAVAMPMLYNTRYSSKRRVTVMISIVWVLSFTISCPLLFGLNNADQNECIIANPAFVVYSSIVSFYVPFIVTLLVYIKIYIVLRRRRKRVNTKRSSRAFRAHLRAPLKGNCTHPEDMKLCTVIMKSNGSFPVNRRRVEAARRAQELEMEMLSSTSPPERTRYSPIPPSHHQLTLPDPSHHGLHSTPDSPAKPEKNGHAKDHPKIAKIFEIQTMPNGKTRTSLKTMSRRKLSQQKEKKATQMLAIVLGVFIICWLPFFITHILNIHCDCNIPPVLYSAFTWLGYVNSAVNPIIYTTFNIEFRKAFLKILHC
# T2 sequence (P28223 whole entry): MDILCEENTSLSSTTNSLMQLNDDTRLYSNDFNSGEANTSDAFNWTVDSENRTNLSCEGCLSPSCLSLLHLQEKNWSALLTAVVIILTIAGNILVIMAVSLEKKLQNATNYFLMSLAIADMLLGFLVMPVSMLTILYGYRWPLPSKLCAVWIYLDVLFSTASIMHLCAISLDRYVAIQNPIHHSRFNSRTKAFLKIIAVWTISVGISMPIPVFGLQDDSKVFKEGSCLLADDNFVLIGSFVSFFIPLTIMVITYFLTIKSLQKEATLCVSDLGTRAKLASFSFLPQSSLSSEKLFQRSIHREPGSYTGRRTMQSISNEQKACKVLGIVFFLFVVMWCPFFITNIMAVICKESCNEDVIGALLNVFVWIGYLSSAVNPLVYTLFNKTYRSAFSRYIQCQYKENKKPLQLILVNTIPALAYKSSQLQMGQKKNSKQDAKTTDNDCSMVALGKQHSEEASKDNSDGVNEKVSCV
structure (smiles),measurement,setting,value
"CN(C)C(=O)N[C@H]1CC[C@H](CCN2CCN3c4cccc5[nH]cc(c45)CC3C2)CC1 (stereo partly drawn) [Compound I-10, 3-(4-(2-(4,6,6a,7,9,10-hexahydro-8H-pyrazino[1,2-a]pyrrolo[4,3,2-de]quinolin-8-yl)ethyl)trans-cyclohexyl)-1,1-dimethylurea]",Affinity pKi ± SEM,dopamine D2 receptors [1],(7.30 ± 0.08)
same,pKi,dopamine D2 receptors [1],7.30
same,affinity for 5-HT2A receptor (in words),5-HT2A receptor [2],very weak affinity
same,pKi,"5-HT2A receptor [2]; [3H]-ketanserin, HEK-293T membranes",5.63
same,pEC50,"dopamine D2 receptors [3]; HEK-293T, I-1 to 19 n=3, I-20 to 27 single determination, read-out: Gai1 BRET EC50",8.41
same,Emax,dopamine D2 receptors [3]; read-out: Gai1 BRET Emax % ± SEM,80%
same,pEC50,"dopamine D2 receptors [4]; HEK-293T, I-1 to 19 n=3, I-20 to 27 single determination, read-out: β-arrestin2 BRET EC50",8.18
same,Emax,dopamine D2 receptors [4]; read-out: β-arrestin2 BRET Emax % ± SEM,84%
"O=c1ccc2ccc(OCCCCN3CCN4c5cccc6[nH]cc(c56)CC4C3)cc2[nH]1 (stereo not drawn) [Compound I-2, 7-(4(4,6,6a,7,9,10-hexahydro-8H-pyrazino[1,2-a]pyrrolo[4,3,2-de]quinolin-8-yl)butoxy)quinolin-2(1H)-one]",affinity for 5-HT2A receptor (in words),5-HT2A receptor [2],very weak affinity
"O=C(CCCN1CCC(O)(c2ccc(Cl)cc2)CC1)c1ccc(F)cc1 [Haloperidol, reference compound]",Freezing time,C57B6 male mice; 30 minutes after administration,61.05 ± 3.239 s
same,Freezing time,C57B6 male mice; 60 minutes after administration,53.19 ± 2.443 s
CN1CCN2c3c(cccc31)[C@@H]1CN(CCCC(=O)c3ccc(F)cc3)CC[C@@H]12 [Lumateperone],affinity for 5-HT2A receptors relative to that for D2 receptors,5-HT2A receptor [5],about 60 times
